Marks after values point to notes of the source that are not given here.
Key:
[1] = system: L929 mouse fibroblasts
[2] = system: HMEC-1 human vascular endothelial cells
[3] = system: blood

| SMILES | Maximum Non-Cytotoxic Concentration L929 [1] | Maximum Non-Cytotoxic Concentration HMEC-1 [2] | Maximum Non-Hemolytic Concentration [3] | Concentrations with no hemolytic properties [3] | Concentrations with hemolytic properties [3] |
| --- | --- | --- | --- | --- | --- |
| O=C(O)CCCCCSCCC(F)(F)C(F)(F)C(F)(F)C(F)(F)C(F)(F)C(F)(F)C(F)(F)C(F)(F)F [2c3c] | 0.25% | 0.5% | 0.25% | – | – |
| O=C(O)CCCCCSCCC(F)(F)C(F)(F)C(F)(F)C(F)(F)C(F)(F)C(F)(F)C(F)(F)C(F)(F)F [2c3k] | 0.25% | 1% | 0.05% | – | – |
| O=C(O)CCCC(=O)OCCC(F)(F)C(F)(F)C(F)(F)C(F)(F)C(F)(F)C(F)(F)C(F)(F)C(F)(F)F [2l3c] | 0.5% | 0.5% | >2.00% | – | – |
| O=C(O)CSCCC(F)(F)C(F)(F)C(F)(F)C(F)(F)C(F)(F)C(F)(F)C(F)(F)C(F)(F)F [2a3c] | 0.2% | 0.2% | 0.2% | – | – |
| O=C(O)CC(F)(F)C(F)(F)C(F)(F)C(F)(F)C(F)(F)C(F)(F)F [2p3c] | 0.1% | 0.1% | 0.25% | – | – |
| O=C(O)CCC(=O)OCCC(F)(F)C(F)(F)C(F)(F)C(F)(F)C(F)(F)C(F)(F)C(F)(F)C(F)(F)F [2j3k] | 0.50* % | 0.5% | 1% | ≤ 1% | – |
| O=C(O)CCCCCSCCC(F)(F)C(F)(F)C(F)(F)C(F)(F)C(F)(F)C(F)(F)C(F)(F)C(F)(F)F [2c3e] | 0.5% | 1% | 0.02% | – | – |
| O=C(O)CCC(=O)OCCC(F)(F)C(F)(F)C(F)(F)C(F)(F)C(F)(F)C(F)(F)F [2i3c] | 0.10** % | 0.10** % | 0.02% | – | – |
| O=C(O)CCCC(=O)OCCC(F)(F)C(F)(F)C(F)(F)C(F)(F)C(F)(F)C(F)(F)C(F)(F)C(F)(F)F [2l3l] | >1.00% | >1.00% | >2.00% | – | – |
| O=C(O)CCCC(=O)OCCC(F)(F)C(F)(F)C(F)(F)C(F)(F)C(F)(F)C(F)(F)F [2k3k] | 0.20** % | 0.10** % | 0.05% | – | – |
| O=C(O)CSCCC(F)(F)C(F)(F)C(F)(F)C(F)(F)C(F)(F)C(F)(F)C(F)(F)C(F)(F)F [2a3f] | 0.2% | 0.2% | >2.00% | – | – |
| O=C(O)CCCC(=O)OCCC(F)(F)C(F)(F)C(F)(F)C(F)(F)C(F)(F)C(F)(F)F [2k3l] | <0.25* % | <0.25% | 0.05% | – | – |
| O=C(O)CCCCCSCCC(F)(F)C(F)(F)C(F)(F)C(F)(F)C(F)(F)C(F)(F)C(F)(F)C(F)(F)F [2c3a] | 0.5% | 0.5% | 0.02% | – | – |
| O=C(O)CCCCCSCCC(F)(F)C(F)(F)C(F)(F)C(F)(F)C(F)(F)C(F)(F)C(F)(F)C(F)(F)F [2c3l] | 0.25* % | 0.5% | 0.02% | – | – |
| O=C(O)CCCCCSCCC(F)(F)C(F)(F)C(F)(F)C(F)(F)C(F)(F)C(F)(F)C(F)(F)C(F)(F)F [2c3f] | <0.25% | 1% | 0.01% | – | above 0.05% |
| O=C(O)CCC(=O)OCCC(F)(F)C(F)(F)C(F)(F)C(F)(F)C(F)(F)C(F)(F)F [2i2i3h] | 0.1% | 0.1% | 0.05% | – | – |
| O=C(O)CCC(=O)OCCC(F)(F)C(F)(F)C(F)(F)C(F)(F)C(F)(F)C(F)(F)F [2i3k] | 0.1% | 0.1% | 0.1% | – | – |
| O=C(O)CCC(=O)OCCC(F)(F)C(F)(F)C(F)(F)C(F)(F)C(F)(F)C(F)(F)C(F)(F)C(F)(F)F [2j3a] | 0.2% | 0.2% | >2.00% | – | – |
| O=C(O)CCCC(=O)OCCC(F)(F)C(F)(F)C(F)(F)C(F)(F)C(F)(F)C(F)(F)F [2k3c] | 0.10* % | 0.10* % | 0.05% | – | – |
| O=C(O)CCC(=O)OCCC(F)(F)C(F)(F)C(F)(F)C(F)(F)C(F)(F)C(F)(F)F [2i3l] | 0.01** % | 0.01** % | 0.05% | – | – |
| O=C(O)CSCCC(F)(F)C(F)(F)C(F)(F)C(F)(F)C(F)(F)C(F)(F)C(F)(F)C(F)(F)F [2a3e] | 0.2% | 0.2% | 0.25% | – | – |
| O=C(O)CCC(=O)OCCC(F)(F)C(F)(F)C(F)(F)C(F)(F)C(F)(F)C(F)(F)F [2i3e] | 0.20** % | 0.10** % | 0.05% | – | – |
| O=C(O)CCC(=O)OCCC(F)(F)C(F)(F)C(F)(F)C(F)(F)C(F)(F)C(F)(F)C(F)(F)C(F)(F)F [2j3l] | 0.10** % | 1% | >2.00% | – | – |
| O=C(O)CCC(=O)OCCC(F)(F)C(F)(F)C(F)(F)C(F)(F)C(F)(F)C(F)(F)C(F)(F)C(F)(F)F [2j2j3h] | 0.25** % | 1% | >2.00% | – | – |
| O=C(O)CC(F)(F)C(F)(F)C(F)(F)C(F)(F)C(F)(F)C(F)(F)F [2p3e] | 0.1% | 0.25% | 0.25% | – | – |
| O=C(O)CSCCC(F)(F)C(F)(F)C(F)(F)C(F)(F)C(F)(F)C(F)(F)C(F)(F)C(F)(F)F [2a3a] | 0.5% | 1% | 0.05% | – | – |
| O=C(O)CCCC(=O)OCCC(F)(F)C(F)(F)C(F)(F)C(F)(F)C(F)(F)C(F)(F)F [2k3e] | 0.10* % | 0.01* % | 0.05% | – | – |
| O=C(O)C(CCC(F)(F)C(F)(F)C(F)(F)C(F)(F)C(F)(F)C(F)(F)C(F)(F)C(F)(F)F)C(=O)O [2s3e] | 0.25% | 0.25% | 0.1% | – | – |
